US20040076663A1, “Complexed-acidic-phospholipid-collagen composites for bone induction” (priority 2002, published 2004)

System: human osteoblast-like cells, MG-63
Test: Cell binding to complexed acidic phospholipid collagen composite (cell adherence and proliferation)
Format: cell-based
Settings: MG-63 cell cultures; composite sterilized under UV light
Description: Before usage, the prepared composite was sterilized under UV light.

Substance: fibronectin
- cell adherence and proliferation: some cells remain in clumps and there appeared to be fewer cells that adhered compared to those exposed to either of the composite formulations
